Patent publication US6344457B1, “Amino acid derivatives inhibiting extracellular matrix metalloproteinase and TNF alpha release” (Chiesi Farmaceutici S.p.A., priority 1997, dated 2002)
Like-named read-outs stand apart in the source and are kept apart here.

How the values were obtained:
[1] = molecular target: T1, collagenase of the human monocytic stock U937 (Homo sapiens, UniProt P03956); experiment: Activity on collagenase; type: biochemical; conditions: radiomarked collagen, 27° C., 16 hours; read-out: C150 (nM) collagenase
T1 construct: the collagenase of the human monocytic stock U937; endogenous in cells; host or cells: U937 human monocytic cell line
T1 sequence (P03956 100-469): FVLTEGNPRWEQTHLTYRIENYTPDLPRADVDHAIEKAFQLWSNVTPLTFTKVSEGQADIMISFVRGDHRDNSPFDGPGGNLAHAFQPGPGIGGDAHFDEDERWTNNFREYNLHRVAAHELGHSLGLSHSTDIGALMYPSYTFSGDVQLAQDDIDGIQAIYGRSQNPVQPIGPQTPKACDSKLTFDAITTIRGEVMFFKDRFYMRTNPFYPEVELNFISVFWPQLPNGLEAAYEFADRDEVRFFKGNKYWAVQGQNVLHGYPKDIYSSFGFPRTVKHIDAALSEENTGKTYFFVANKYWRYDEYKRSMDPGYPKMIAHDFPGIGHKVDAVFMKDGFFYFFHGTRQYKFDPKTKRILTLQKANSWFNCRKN
Experimental: The collagenase was incubated at 27° C. for 16 hours with radiomarked collagen, and its activity was determined by the release of soluble peptides produced by the enzymatic breakdown of the collagen. The inhibiting concentration C150 for each compound was determined by measurement of the activity of the enzyme in the presence of the inhibitor at a concentration ranging between 10^−7 and 10^−12 M (the inhibitor is dissolved at a concentration of 10^−2 M in DMSO, then diluted successively by tenths in the buffer: Tris, HCl 150 mM, pH 7.5; NaCl 0.15 M; CaCl2 10 mM).

[2] = molecular target: 92 kDa gelatinase of human origin (Homo sapiens, UniProt P14780); experiment: Activity on gelatinase, radiomarked gelatin; type: biochemical; conditions: test performed with radiomarked gelatin; read-out: C150 (nM) gelatinase 92 kDa*
Chain of 92 kDa gelatinase of human origin (P14780 94-707): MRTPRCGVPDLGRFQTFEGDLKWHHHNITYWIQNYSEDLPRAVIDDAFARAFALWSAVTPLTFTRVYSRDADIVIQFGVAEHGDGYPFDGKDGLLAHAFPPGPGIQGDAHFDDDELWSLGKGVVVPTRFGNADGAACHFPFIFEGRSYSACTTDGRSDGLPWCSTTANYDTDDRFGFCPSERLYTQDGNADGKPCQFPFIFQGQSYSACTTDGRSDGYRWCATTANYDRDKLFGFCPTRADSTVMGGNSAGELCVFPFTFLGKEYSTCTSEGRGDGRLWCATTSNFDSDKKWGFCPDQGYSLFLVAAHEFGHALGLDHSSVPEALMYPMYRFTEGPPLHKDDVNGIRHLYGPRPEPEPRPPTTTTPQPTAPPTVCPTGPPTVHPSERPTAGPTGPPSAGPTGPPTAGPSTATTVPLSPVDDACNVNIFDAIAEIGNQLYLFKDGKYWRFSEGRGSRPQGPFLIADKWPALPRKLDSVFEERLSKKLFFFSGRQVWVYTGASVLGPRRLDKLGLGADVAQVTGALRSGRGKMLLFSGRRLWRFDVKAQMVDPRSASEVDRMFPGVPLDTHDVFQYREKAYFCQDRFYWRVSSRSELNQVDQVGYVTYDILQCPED
Experimental: The anti-gelatinase activity of the compounds according to the invention also was determined on 92 kDa or 72 kDa gelatinase of human origin, in accordance with the operating mode described by Harris, E. D., Krane, S. M.; (Biochem. Biophys. Acta, 258, 566-576, 1972).
The gelatinase was incubated at 37° C. for 16 hours with radiomarked gelatin, and its activity was determined by the release of the soluble peptides produced by the enzymatic breakdown of the gelatin. The inhibiting concentration C150 for each compound was determined by measurement of the activity of the enzyme in the presence of the inhibitor at a concentration ranging between 10^−7 and 10^−12 M (the inhibitor is dissolved in the same manner as for collagenase).

[3] = Determination of bioavailability (blood levels, ex-vivo bioassay); type: in vivo; conditions: mice; for concentration at 10 min / concentration at 20 min / concentration at 40 min / concentration at 1 h / concentration at 24 h: mouse, blood, 50 mg/kg
Experimental: The compounds of this invention were administered i.p. or p.o. between 1 and 50 mg/kg to mice: the blood levels then were determined by an ex-vivo bioassay according to Wang X. et al. (Cancer Res., 54, 4726-4728, 1994). The introduction of an OH group systematically increases the bioavailability of the products.

[4] = tested on: release of TNF from the peritoneal macrophages of mice stimulated by LPS; experiment: Inhibition of the production of TNF in vitro; type: cell-based; conditions: Peritoneal macrophage; mouse peritoneal macrophages, LPS 100 ng/ml; read-out: C150 (μM) TNF
Experimental: The capacity of the compounds according to this invention to inhibit the release of TNF was determined from the peritoneal macrophages of mice stimulated by LPS (Lang, F., Robert, […], Petit, J. Y., J. Pharmacol. Exp. Ther., 275, 171-176, 1995). After an adhesion phase of 2 hours, the cells were treated for 1 hour with the compound to be tested at concentrations ranging between 10^-6 to 10^-9 M (the inhibitor is dissolved in DMSO at 10^-2 M, then at 5.10^-3 M in RPMI 1640 with 5% SVF, then diluted successively by tenths in the same medium), then stimulated by the addition of LPS (100 ng/ml in final concentration). Three hours later, the biological activity of the TNF in the supernatants was determined by a cytotoxicity test using the murine stock L929 in accordance with the operating procedure described by Band, G., Lin, […]., Evans, C. H. (Bioch. Biophys. Acta, 1134, 309-318, 1982). The pg/ml concentration of the TNF of the samples was determined from a murine αTNF standard curve, thus making it possible to define the inhibiting concentration […] of the compounds studied.

[5] = ip, 50 mg/kg i.p., read-out: blood level, I.p. method, 10′
[6] = ip, 50 mg/kg i.p., read-out: blood level, I.p. method, 20′
[7] = ip, 50 mg/kg i.p., read-out: blood level, I.p. method, 40′
[8] = po, 50 mg/kg p.o., read-out: blood level, P.o. method, 10′
[9] = po, 50 mg/kg p.o., read-out: blood level, P.o. method, 20′
[10] = ip, 50 mg/kg i.p., read-out: blood level, I.p. method, 1 h
[11] = ip, 50 mg/kg i.p., read-out: blood level, I.p. method, 24 h
[12] = po, 50 mg/kg p.o., read-out: blood level, P.o. method, 1 h

Molecule	concentration at 10 min [3, 5] [ng/mL]	concentration at 20 min [3, 6] [ng/mL]	concentration at 40 min [3, 7] [ng/mL]	concentration at 10 min [3, 8] [ng/mL]	concentration at 20 min [3, 9] [ng/mL]	concentration at 1 h [3, 12] [ng/mL]	blood level, I.p. method, 10′ ([3]; 50 mg/kg i.p.) [ng/mL]	blood level, I.p. method, 20′ ([3]; 50 mg/kg i.p.) [ng/mL]	blood level, P.o. method, 10′ ([3]; 50 mg/kg p.o.) [ng/mL]	blood level, P.o. method, 20′ ([3]; 50 mg/kg p.o.) [ng/mL]	also measured
CC(C)C[C@@](O)(C(=O)N[C@@H](Cc1ccc(Cl)cc1)C(=O)NCC/C(N)=N/O)[C@H](C)C(=O)NO [Example 28, N-2(S)[1(S) hydroxycarbamoyl-1 ethyl]-2(S)hydroxy-4-methylpentanoyl L-4-chlorophenylalanine N-oximino-2-amino-2-ethylamide]	–	–	–	–	–	–	–	–	–	–	IC50 [1]: 26 nM; IC50 [2]: 1.6 nM
CNC(=O)[C@H](Cc1ccc(OC)cc1)NC(=O)[C@H](CC(C)C)[C@H](C)C(=O)NO [drawing 113]	200	< 100	< 100	< 100	< 100	–	–	–	–	–	concentration at 40 min ([3]; po, 50 mg/kg p.o., read-out: blood level, P.o. method, 40′): < 100 ng/mL
CNC(=O)[C@H](Cc1ccc(OC)cc1)NC(=O)[C@](O)(CC(C)C)[C@H](C)C(=O)NO [drawing 114]	23000	8700	–	4200	2100	580	–	–	–	–	concentration at 1 h [3, 10]: 770 ng/mL; concentration at 24 h [3, 11]: < 500 ng/mL; concentration at 24 h ([3]; po, 50 mg/kg p.o., read-out: blood level, P.o. method, 24 h): < 500 ng/mL
CC(C)C[C@@](O)(C(=O)N[C@@H](Cc1ccc(Cl)cc1)C(=O)NCCN1CCOCC1)[C@H](C)C(=O)NO [drawing 115]	–	–	18000	–	–	–	30000	27000	2300	1200	blood level, P.o. method, 24 h ([3]; 50 mg/kg p.o.): 900 ng/mL
CC(C)C[C@@](O)(C(=O)N[C@@H](Cc1ccc(Cl)cc1)C(=O)NCCN1CCOCC1)[C@H](C)C(=O)NO [drawing 116]	–	–	–	–	–	400	87000	13000	5100	3100	blood level, P.o. method, 24 h ([3]; 50 mg/kg p.o.): <300 ng/mL; concentration at 1 h [3, 10]: 1700 ng/mL; concentration at 24 h [3, 11]: 300 ng/mL
CC(C)C[C@@](O)(C(=O)N[C@@H](Cc1ccc(Cl)c(Cl)c1)C(=O)NCCN1CCOCC1)[C@H](C)C(=O)NO [drawing 118]	–	–	–	–	–	–	700	500	100	100	blood level, I.p. method, 40′ ([3]; 50 mg/kg i.p.): 100 ng/mL
CC(C)C[C@@](O)(C(=O)N[C@@H](Cc1ccc(Cl)c(Cl)c1)C(=O)NCCN1CCOCC1)[C@H](C)C(=O)NO [drawing 119]	–	–	–	–	–	450	6000	5000	1250	800	blood level, I.p. method, 40′ ([3]; 50 mg/kg i.p.): 1800 ng/mL
CC(C)C[C@@](O)(C(=O)N[C@@H](Cc1ccc(Cl)c(Cl)c1)C(=O)NCCOCCO)[C@H](C)C(=O)NO [drawing 120]	4500	7800	4400	100	100	–	–	–	–	–	–
CNC(=O)[C@@H](NC(=O)[C@H](CC(C)C)[C@H](O)C(=O)NO)C(C)(C)C [reference compound]	–	–	–	–	–	–	–	–	–	–	IC50 [4]: 0.14 µM
N-2-(S)[(S)-hydroxy-(S)hydroxycarbamoylmethyl)-2(S)-hydroxy-4-methyl]pentanoyl-o-methyl-3-methyl-(S) valine N-methylamide [Example 34]	–	–	–	–	–	–	–	–	–	–	IC50 [2]: 34 nM
